# From ChEMBL document CHEMBL1201862, “PubChem BioAssay data set” (2004)
# The source made the active and inactive calls.
# Legend:
# [1] = LGR2 antagonists, dose response, cell-based, HEK293, CRE-luciferase reporter, cherry pick, set 2 (AID 743343); format: functional;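 further: transfected cells were stimulated with diluted bursicon conditioned medium after compound addition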
# [2] = HepG2 cell cytotoxicity, dose response, cytotoxicity control, plate reader, cherry-pick, antagonist series (AID 743416); format: functional, cell-based
# Paired box protein Pax-8 = Paired box protein Pax-8 (Homo sapiens, UniProt Q06710); assay: inhibitors of PAX8-driven TPO luciferase reporter, dose response, RMG-I cells, cherry-pick (AID 687027); format: functional, cell-based;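 further: luciferase reporter driven by Pax8 target thyroperoxidase promoter measured by SteadyGlo luminescence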
# [3] = MC4R antagonists, dose response, counter-screen for LGR2 antagonist project, cell-based, plate reader, cherry pick (AID 743444); format: functional;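 further: transfected HEK 293 cells stimulated with alpha-MSH peptide; potency of inhibitors of the alpha-MSH evoked signal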
# [4] = cytotoxicity in OVCAR8 ovarian cancer cells, dose response, PAX8 project, cell-based, plate reader, dry powder samples (AID 743197); format: functional; conditions: OVCAR-8
# [5] = HEK293 cell cytotoxicity, dose response, cytotoxicity control, plate reader, cherry-picked samples (AID 743446); format: functional, cell-based
# [6] = NIH:OVCAR-3 ovarian cancer cell cytotoxicity, dose response, PAX8 inhibitor project, plate reader, dry powder samples (AID 743044); format: functional, cell-based
# [7] = non-specific cell cytotoxicity, dose response, cytotoxicity control for PAX8 inhibitor project, plate reader, dry powder samples (AID 743021); format: functional, cell-based
# [8] = A549 cell cytotoxicity, dose response, cytotoxicity control, plate reader, cherry-pick, antagonist series (AID 743412); format: functional, cell-based
# HEK293 = assay: inhibitors of LMP1-driven NF-kB reporter, dose response, cell-based, HEK293, luciferase, cherry-pick (AID 588343); format: functional; conditions: Homo sapiens
# [9] = biological target: NAD-dependent protein deacylase sirtuin-5, mitochondrial (Homo sapiens, UniProt Q9NXA8); assay: SIRT5 desuccinylase inhibitors, dose response, biochemical, fluorescence imaging, cherry-pick, set 5 (AID 720591);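 further: desuccinylation of succinyl peptide AMC substrate read as fluorescence after trypsin release; potency of inhibitors that lower fluorescence and may act on trypsin instead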
# [10] = biological target: Induced myeloid leukemia cell differentiation protein Mcl-1 (Homo sapiens, UniProt Q07820); format: functional
# [11] = biological target: T1, Apoptotic protease-activating factor 1 (Homo sapiens, UniProt O14727); format: functional
# T1 sequence (O14727 whole entry): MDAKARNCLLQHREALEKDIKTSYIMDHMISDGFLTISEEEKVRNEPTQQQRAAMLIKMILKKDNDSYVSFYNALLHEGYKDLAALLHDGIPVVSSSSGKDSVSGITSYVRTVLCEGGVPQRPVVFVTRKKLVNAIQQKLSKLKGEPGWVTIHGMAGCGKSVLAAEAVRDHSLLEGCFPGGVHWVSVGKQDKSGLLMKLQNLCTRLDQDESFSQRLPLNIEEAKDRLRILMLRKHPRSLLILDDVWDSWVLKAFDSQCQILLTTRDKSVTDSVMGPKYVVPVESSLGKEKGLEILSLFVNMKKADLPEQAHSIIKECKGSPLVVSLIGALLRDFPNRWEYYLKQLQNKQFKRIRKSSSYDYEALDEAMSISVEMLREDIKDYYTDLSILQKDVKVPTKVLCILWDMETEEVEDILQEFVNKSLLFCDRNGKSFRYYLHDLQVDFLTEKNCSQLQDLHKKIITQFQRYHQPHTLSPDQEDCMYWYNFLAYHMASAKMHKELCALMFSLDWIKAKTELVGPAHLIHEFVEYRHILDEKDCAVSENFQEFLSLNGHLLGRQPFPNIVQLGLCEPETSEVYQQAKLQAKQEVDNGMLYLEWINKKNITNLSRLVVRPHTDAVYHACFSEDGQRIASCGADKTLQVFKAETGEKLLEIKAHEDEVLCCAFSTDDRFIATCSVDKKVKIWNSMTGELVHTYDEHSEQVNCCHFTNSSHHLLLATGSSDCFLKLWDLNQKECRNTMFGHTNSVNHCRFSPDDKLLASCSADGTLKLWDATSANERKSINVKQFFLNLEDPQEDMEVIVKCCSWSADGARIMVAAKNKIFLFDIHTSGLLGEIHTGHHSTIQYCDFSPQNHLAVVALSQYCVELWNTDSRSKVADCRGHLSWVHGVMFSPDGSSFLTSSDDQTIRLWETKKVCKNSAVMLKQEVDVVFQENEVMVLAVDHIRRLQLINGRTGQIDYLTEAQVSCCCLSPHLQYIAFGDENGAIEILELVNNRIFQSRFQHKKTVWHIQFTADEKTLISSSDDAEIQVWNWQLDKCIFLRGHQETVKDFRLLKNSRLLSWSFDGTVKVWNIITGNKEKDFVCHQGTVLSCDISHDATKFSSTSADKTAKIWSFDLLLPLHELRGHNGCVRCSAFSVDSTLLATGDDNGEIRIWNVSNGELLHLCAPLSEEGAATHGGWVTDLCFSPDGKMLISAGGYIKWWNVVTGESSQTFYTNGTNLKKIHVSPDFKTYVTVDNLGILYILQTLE
# [12] = Artemis endonuclease inhibitor potency, dose response, biochemical, fluorescence intensity (AID 720701); format: functional;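 further: Artemis endonuclease enzyme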
# Vero = Vero cell cytotoxicity, cytotoxicity control for flavivirus capping enzyme inhibitors (AID 588742); format: functional; conditions: Chlorocebus sabaeus
# [13] = ZM109 Env clade C HIV-1 fusion inhibitors, dose response, HeLa effector, CEM target cells, luciferase, cherry-pick (AID 652058); format: functional, cell-based
# [14] = off-target signal loss in HeLa-CEM21 co-culture – HeLa F-luc CTL cells, cherry-picked, counter-screen for HIV-1 Env fusion inhibitor project, dose response (AID 652040); format: functional, cell-based;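 further: potency for signal decrease marking cytotoxic or nonspecific inhibition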
# [15] = CEM21 lymphoblast cell cytotoxicity, dose response, cytotoxicity control for viral fusion inhibitor project, CellTiter-Glo luminescence, cherry-picked (AID 652042); format: functional, cell-based;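 further: potency for signal decrease meaning cytotoxicity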
# [16] = inhibitors of HIV Env-driven cell fusion, dose response, cherry-pick (AID 652057); format: functional, cell-based
# [17] = inhibitors of clade B AD8 Env fusion, dose response, cell-based, cherry-pick (AID 652062); format: functional;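 further: luciferase signal from cell-cell fusion driven by HIV-1 clade B AD8 Env; potency is for inhibitors of fusion seen as a drop in luminescence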
# Major prion protein = Major prion protein (Homo sapiens, UniProt P04156); format: functional, cell-based
# [18] = biological target: Disintegrin and metalloproteinase domain-containing protein 17 (Homo sapiens, UniProt P78536); assay: ADAM17 protease inhibitors, dose response, counter-screen for ADAM10 exosite inhibitor project, biochemical, quenched FRET substrate (AID 743253)
# Protein skinhead-1 = biological target: T2, Protein skinhead-1 (Caenorhabditis elegans, UniProt P34707); format: functional
# T2 sequence (P34707 whole entry): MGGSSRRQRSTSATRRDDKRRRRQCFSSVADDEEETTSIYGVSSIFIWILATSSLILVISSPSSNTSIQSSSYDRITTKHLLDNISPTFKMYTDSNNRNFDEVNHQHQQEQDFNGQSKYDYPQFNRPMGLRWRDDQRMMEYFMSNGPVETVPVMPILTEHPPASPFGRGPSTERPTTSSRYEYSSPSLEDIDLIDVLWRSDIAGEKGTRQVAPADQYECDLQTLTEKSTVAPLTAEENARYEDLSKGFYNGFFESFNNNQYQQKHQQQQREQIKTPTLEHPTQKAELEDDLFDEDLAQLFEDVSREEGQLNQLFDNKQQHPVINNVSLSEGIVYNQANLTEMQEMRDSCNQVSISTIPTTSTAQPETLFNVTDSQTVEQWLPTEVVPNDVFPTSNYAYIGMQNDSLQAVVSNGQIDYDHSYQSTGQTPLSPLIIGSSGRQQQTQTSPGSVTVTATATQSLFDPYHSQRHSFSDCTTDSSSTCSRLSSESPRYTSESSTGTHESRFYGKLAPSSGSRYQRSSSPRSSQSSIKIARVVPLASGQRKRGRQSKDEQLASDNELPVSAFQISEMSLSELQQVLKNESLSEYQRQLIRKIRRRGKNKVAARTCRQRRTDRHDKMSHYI
# [19] = growth suppression of PTEN-null colon cells, dose response, cell-based, HCT116 PTEN knockout (AID 1047); format: functional;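 further: HCT116 colon tumor cells with PTEN knocked out; cells exposed to compound for 60 hours before readout; potency for loss of cell viability measured by luminescence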
# Streptokinase A = biological target: T3, Streptokinase A (Streptococcus pyogenes serotype M1, UniProt P10520); assay: S. pyogenes streptokinase expression inhibitors, potency, dose response, plasminogen activation absorbance, OD405 (AID 1914); format: functional, Streptococcus pyogenes M1 GAS;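 further: secreted streptokinase activity via plasminogen activation per viability signal from cell pellet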
# T3 sequence (P10520 whole entry): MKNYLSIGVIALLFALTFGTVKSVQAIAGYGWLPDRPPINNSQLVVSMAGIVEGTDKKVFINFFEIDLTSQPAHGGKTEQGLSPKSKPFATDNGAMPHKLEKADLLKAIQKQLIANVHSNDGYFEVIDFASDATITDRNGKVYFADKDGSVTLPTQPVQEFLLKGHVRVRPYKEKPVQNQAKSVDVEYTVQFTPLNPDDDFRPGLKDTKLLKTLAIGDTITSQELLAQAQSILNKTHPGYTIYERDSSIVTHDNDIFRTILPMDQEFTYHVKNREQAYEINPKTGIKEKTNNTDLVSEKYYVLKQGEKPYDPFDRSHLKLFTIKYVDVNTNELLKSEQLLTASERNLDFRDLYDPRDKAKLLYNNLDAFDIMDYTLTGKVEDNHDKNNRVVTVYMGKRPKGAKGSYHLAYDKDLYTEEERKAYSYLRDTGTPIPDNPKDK
# [20] = tested on: Streptococcus sp. 'group A'; assay: growth inhibition of control SK(-) GAS strain, dose response, counter-screen for streptokinase expression inhibitor project, luminescence, kanamycin, BacTiterGlo, confirmation (AID 1900); format: functional, organism-based
# Streptococcus = assay: Group A Streptococcus viability loss, dose response, counter-screen for streptokinase expression inhibitor project, luminescence, BacTiterGlo (AID 1915); format: functional, organism-based;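 further: potency for reduction of bacterial viability or growth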
# [21] = growth suppression of beta-catenin-knockout colon cells, dose response, cell-based, HCT116, human colon tumor (AID 1045); format: functional;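 further: HCT116 colon tumor cells with beta catenin knocked out; cells exposed to compound for 60 hours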
compound,measurement,setting,value
O=S(=O)(c1ccccc1F)N1CC[C@@H]2[C@H]1c1cc(-c3cccc(F)c3)ccc1N[C@@H]2CO,AC50,[1],11.1 µM (active)
same,AC50,[2],18.6 µM (active)
same,AC50,Paired box protein Pax-8,4.09 µM (active)
same,AC50,[3],11.2 µM (active)
same,AC50,[4],15.6 µM (active)
same,AC50,[5],15.3 µM (active)
same,AC50,[6],49 µM (active)
same,AC50,[7],5.52 µM (active)
same,AC50,[8],8.1 µM (active)
CC(Sc1nc(-c2ccc(F)cc2)cs1)C(=O)N1c2ccccc2CC1C (stereo unspecified),AC50,HEK293,117 µM (active)
same,AC50,[9],> 30 µM (inactive)
Cc1ccc(N=Nc2c(N)nn3c(O)cc(-c4ccccc4)nc23)cc1,IC50,[10],12.9 µM (active)
same,IC50,[11],13.8 µM (active)
same,IC50,[12],16.9 µM (active)
same,CC50,Vero,25.1 µM (active)
NS(=O)(=O)c1cnccc1Nc1ccc(Cl)cc1,AC50,[9],> 30 µM (inactive)
C/C=C/c1ccc(OCCOCCNCc2ccccc2)c(OC)c1,AC50,[13],5.73 µM (active)
same,AC50,[14],4.93 µM (active)
same,AC50,[15],33.7 µM (active)
same,AC50,[16],3.51 µM (active)
same,AC50,[17],12.2 µM (active)
C[C@@H]1C=CCCO[C@]12C(=O)N(Cc1ccccc1C(F)(F)F)c1ccccc12,AC50,[9],> 30 µM (inactive)
COC(=O)CSc1ncnc2scc(-c3ccccc3)c12,IC50,cells,> 138 µM (inactive)
same,IC50,Major prion protein,5.59 µM (active)
COc1ccc(S(=O)(=O)Nc2cc3c4c(oc3c3ccccc23)CC(C)(C)CC4=O)cc1,IC50,[18],> 69.5 µM (inactive)
same,IC50,Protein skinhead-1,> 100 µM (inactive)
same,EC50,[19],20.1 µM (active)
same,EC50,Streptokinase A,97 µM (active)
same,EC50,[20],9.62 µM (active)
same,EC50,Streptococcus,78.6 µM (active)
same,EC50,[21],26.6 µM (active)
